Experimental data taken from patent EP0092073A1, “Magnesium salt of chenodeoxycholic acid and ursodeoxycholic acid, the process for its preparation, and therapeutic compositions which contain it as active principle” (SCHWARZ ITALIA S.p.A., priority 1982, dated 1983).
Read-outs that look alike come from different tables or passages of the source.

Legend:
[1] = system: hampsters; experiment: Bile lipid and bile acid contents of the bile (cholesterol-enriched diet, 80 days); assay type: in vivo
Protocol: (§1) The investigations were carried out on hampsters (of female sex, but excluding those in a state of pregnancy) having an initial weight of 75-90 g. They were treated for 80 days with oral administration (by gastric probe) of MG-UCD (10-20 mg/kg/day), chenodeoxycholic acid (10-20 mg/kg/day) or ursodeoxycholic acid (10-20 mg/kg/day) (Tables 4 and 5). The animals were maintained for 80 consecutive days on a Nossan feed diet for rats, enriched with cholesterol (2 mg/g of food).
(§2) Each experimental group consisted of 10 units. After 80 days, the animals were narcotised with ethyl ether, and the bile was withdrawn, together with the calculi and crystals from the gall-bladder as described by Pearlman and coll. in Gastroenterology 77, 634 (1979).
The bile acid, phospholipid, cholesterol, cholic acid, chenodeoxycholic acid, ursodeoxycholic acid, DCA (deoxycholic acid) and LCA (lithocholic acid) contents were evaluated in the bile by the methods described by Pearlman and coll. (see above).

[2] = system: patients; experiment: Controlled study in comparison with the free acids; tolerability in patients; assay type: in vivo; conditions: patients
[3] = Acute lethality and toxicity, oral administration (gastric probe); assay type: in vivo, Mus musculus; design: key to Toxic symptomatology Type: NN = no symptomatology; D = depression; conditions: in vivo, po; for mortality at 24 h / mortality at 168 h: oral; for mortality at 24 h: read-out: % mortality at following times after administration 24 h; for mortality at 168 h: read-out: % mortality at following times after administration 7 days; for LD50 at 168 h: probit method, read-out: LD50 (mg/kg with reliability limits) 7 days after treatment
Protocol: (§3) Unless otherwise specified, the research was carried out using: a) Mg-UCD capsules as such; b) the powdered contents of Mg-UCD capsules; CDCA (chenodeoxycholic acid) and UDCA (ursodeoxycholic acid) as pure substance which in all cases was partly dissolved and partly suspended under warm conditions (T = 30°C) in 10% gum arabic mucilage (so as to administer 10-40 ml of liquid per kg orally). In certain cases, namely in the experiments involving parenteral administration, the active principle of Mg-UCD, the chenodeoxycholic acid and ursodeoxycholic acid were dissolved in distilled water of slightly alkaline pH (5-10 ml/kg).
(§4) The generally acute lethality, toxicity and tolerability were determined by oral administration of the Mg-UCD (by gastric probe) in the Mus musculus, rat and dog. Animals of both sexes were used, none of which were pregnant. They were fasted for about 12 hours before treatment (but allowing them free access to water). The investigations were carried out using the Mg-UCD in powder form. Comparative investigations were carried out on the rat and Mus musculus using the active principle by endoperitoneal administration, and chenodeoxycholic acid and ursodeoxycholic acid by oral administration (using a gastric probe). Each dose was administered to 20 rats or Mus musculus (10 male and 10 female) and to eight dogs (4 male and 4 female). The animals were observed attentively during the 7 days following administration, and any lethality, toxic symptoms, disturbances, functional variations determinable with the eye, behaviour etc. were noted.
(§5) The LD50 was determined 7 days after administration using the probit method.

[4] = system: Mus musculus; experiment: as above; assay type: in vivo; design: key to Toxic symptomatology Type: NN = no symptomatology; D = depression; conditions: oral
Protocol: as §3, §4, §5

[5] = system: rat; experiment: as above; assay type: in vivo; design: key to Toxic symptomatology Type: NN = no symptomatology; D = depression; conditions: oral
Protocol: as §3, §4, §5

[6] = system: hampsters; experiment: Action on the formation of cholesterol calculi in the gall-bladder (cholesterol-enriched diet, 80 days); assay type: in vivo; conditions: female hampsters; for % animals with calculi / % animals with crystals: cholesterol-enriched diet
Protocol: as §1, §2

[7] = mouse, 2000 mg/kg, M. musculus F, 2000 mg/kg
[8] = mouse, 2000 mg/kg, M. musculus M, 2000 mg/kg
[9] = mouse, 4000 mg/kg, M. musculus F, 4000 mg/kg
[10] = mouse, 4000 mg/kg, M. musculus M, 4000 mg/kg
[11] = mouse, 8000 mg/kg, M. musculus F, 8000 mg/kg
[12] = mouse, 8000 mg/kg, M. musculus M, 8000 mg/kg
[13] = rat, 2000 mg/kg, Rat F, 2000 mg/kg
[14] = rat, 2000 mg/kg, Rat M, 2000 mg/kg
[15] = rat, 4000 mg/kg, Rat F, 4000 mg/kg
[16] = rat, 4000 mg/kg, Rat M, 4000 mg/kg
[17] = rat, 8000 mg/kg, Rat F, 8000 mg/kg
[18] = rat, 8000 mg/kg, Rat M, 8000 mg/kg

## C[C@H](CCC(=O)O)[C@H]1CC[C@H]2[C@@H]3[C@@H](O)C[C@@H]4C[C@H](O)CC[C@]4(C)[C@H]3CC[C@]12C [Ursodeoxycholic acid, 17β-(1-methyl-3-carboxypropyl)-ethiocholane-3α,7β-diol]
[1]; 10 mg/kg/day oral for 80 days
  Bile acids (expressed as molar % ± s.e.) Cheno-deoxycholic acid: 12.4 ± 2.6 molar %
  Bile acids (expressed as molar % ± s.e.) Cholic acid: 30.2 ± 4.1 molar %
  Bile acids (expressed as molar % ± s.e.) DCA: 12.9 ± 0.8 molar %
  Bile acids (expressed as molar % ± s.e.) LCA: 2.5 ± 0.1 molar %
  Bile acids (expressed as molar % ± s.e.) Urso-deoxycholic acid: 36.2 ± 1.4 molar %
  Bile lipids (expressed as molar % ± s.e.) Bile acids: 79.7 ± 4.1 molar %
  Bile lipids (expressed as molar % ± s.e.) Cholesterol: 7.4 ± 0.4 molar %
  Bile lipids (expressed as molar % ± s.e.) Phospho-lipids: 15.5 ± 1.0 molar %
[1]; 20 mg/kg/day oral for 80 days
  Bile acids (expressed as molar % ± s.e.) Cheno-deoxycholic acid: 4.5 ± 0.9 molar %
  Bile acids (expressed as molar % ± s.e.) Cholic acid: 17.9 ± 2.1 molar %
  Bile acids (expressed as molar % ± s.e.) DCA: 10.5 ± 0.6 molar %
  Bile acids (expressed as molar % ± s.e.) LCA: 3.9 ± 0.2 molar %
  Bile acids (expressed as molar % ± s.e.) Urso-deoxycholic acid: 72.8 ± 4.7 molar %
  Bile lipids (expressed as molar % ± s.e.) Bile acids: 81.3 ± 4.3 molar %
  Bile lipids (expressed as molar % ± s.e.) Cholesterol: 5.7 ± 0.2 molar %
  Bile lipids (expressed as molar % ± s.e.) Phospho-lipids: 15.8 ± 1.0 molar %
[2]
  side effects: tends to cause constipation
[3]; [7]
  mortality at 24 h: 0%
  mortality at 168 h: 0%
[3]; [8]
  mortality at 24 h: 0%
  mortality at 168 h: 0%
[3]; [9]
  mortality at 24 h: 20%
  mortality at 168 h: 20%
[3]; [10]
  mortality at 24 h: 20%
  mortality at 168 h: 20%
[3]; [11]
  mortality at 24 h: 60%
  mortality at 168 h: 70%
[3]; [12]
  mortality at 24 h: 60%
  mortality at 168 h: 80%
[3]; mouse, M. musculus F
  LD50 at 168 h: 6140 mg/kg
[3]; mouse, M. musculus M
  LD50 at 168 h: 5630 mg/kg
[3]; [13]
  mortality at 24 h: 0%
  mortality at 168 h: 0%
[3]; [14]
  mortality at 24 h: 0%
  mortality at 168 h: 0%
[3]; [15]
  mortality at 24 h: 10%
  mortality at 168 h: 10%
[3]; [16]
  mortality at 24 h: 10%
  mortality at 168 h: 10%
[3]; [17]
  mortality at 24 h: 70%
  mortality at 168 h: 60%
[3]; [18]
  mortality at 24 h: 70%
  mortality at 168 h: 70%
[3]; rat, Rat F
  LD50 at 168 h: 7330 mg/kg
[3]; rat, Rat M
  LD50 at 168 h: 6490 mg/kg
[4]; M. musculus F, 2000 mg/kg
  Toxic symptomatology Latency: 5-10 min
  Toxic symptomatology Type: D
[4]; M. musculus F, 4000 mg/kg
  Toxic symptomatology Latency: 5-10 min
  Toxic symptomatology Type: D
[4]; M. musculus F, 8000 mg/kg
  Toxic symptomatology Latency: 5-10 min
  Toxic symptomatology Type: D
[4]; M. musculus M, 2000 mg/kg
  Toxic symptomatology Latency: 5-10 min
  Toxic symptomatology Type: D
[4]; M. musculus M, 4000 mg/kg
  Toxic symptomatology Latency: 5-10 min
  Toxic symptomatology Type: D
[4]; M. musculus M, 8000 mg/kg
  Toxic symptomatology Latency: 5-10 min
  Toxic symptomatology Type: D
[5]; Rat F, 2000 mg/kg
  Toxic symptomatology Latency: 5-10 min
  Toxic symptomatology Type: D
[5]; Rat F, 4000 mg/kg
  Toxic symptomatology Latency: 5-10 min
  Toxic symptomatology Type: D
[5]; Rat F, 8000 mg/kg
  Toxic symptomatology Latency: 5-10 min
  Toxic symptomatology Type: D
[5]; Rat M, 2000 mg/kg
  Toxic symptomatology Latency: 5-10 min
  Toxic symptomatology Type: D
[5]; Rat M, 4000 mg/kg
  Toxic symptomatology Latency: 5-10 min
  Toxic symptomatology Type: D
[5]; Rat M, 8000 mg/kg
  Toxic symptomatology Latency: 5-10 min
  Toxic symptomatology Type: D
[6]; 10 mg/kg/day oral for 80 days
  % animals with calculi: 40%
  % animals with crystals: 20%
[6]; 20 mg/kg/day oral for 80 days
  % animals with calculi: 0%
  % animals with crystals: 0%
[6]; day 80, oral, 10 mg/kg/day
  Body weight (g ± s.e.) after following days 80: 141 ± 7 g
